Reference: patent publication US20220411380A1, “ACID ADDITION SALT OF RORy REGULATOR” (JIANGSU HENGRUI MEDICINE CO., LTD., priority 2019, published 2022)

Key:
Type in all cases: physicochemical
[1] = DVS (dynamic vapor sorption) characterization
Procedure: DVS refers to dynamic vapor sorption: The measurement was conducted with a Surface Measurement Systems advantage 2 at 25° C., starting from 50% humidity in humidity range of 0%-95% with a step size of 10%. The judging criterion was that the mass change of each gradient dM/dT is less than 0.002 and TMAX is less than 360 min in two circles.

[2] = Long-term/accelerated stability study of crystalline form α of hydrochloride and crystalline form I of hydrobromide
Procedure: The crystalline form α of the hydrochloride of the compound of formula II was let stand in conditions of 25° C./60% RH and 40° C./75% RH to examine its stability.
The crystalline form I of the hydrobromide of the compound of formula II was let stand in conditions of 25° C./60% RH and 40° C./75% RH to examine its stability.

[3] = Influencing factor study of crystalline form α of hydrochloride and crystalline form I of hydrobromide
Procedure: Sample of the crystalline form α of the hydrochloride and the crystalline form I of the hydrobromide of the compound of formula II were let stand open to examine the stability of the samples in conditions of illumination (4500 Lux), high temperature (40° C. and 60° C.) and high humidity (RH 75% and RH 92.5%) in a period of 30 days.

SMILES: Br.NC(=O)C[C@H](c1ccc(S(=O)(=O)CC2CC2)cc1)c1nc2cc(-c3ccccc3OC(F)F)c(Cl)cc2[nH]1
- Crystalline form before and after DVS (XRPD comparison) ([1]; 0-95% humidity change): crystalline form did not change during DVS
- DVS weight change ([1]; 25° C., 20.0% RH to 80.0% RH): 0.636%
- Hygroscopicity ([1]; DVS, 25° C., 20.0% RH to 80.0% RH): slightly hygroscopic
- Vapor sorption ([1]; accelerated test condition, 70% humidity): about 0.702%
- Vapor sorption ([1]; extreme condition, 90% humidity): about 1.094%
- Vapor sorption ([1]; normal storage condition, 60% humidity/25° C.): about 0.589%
- Chiral purity (%) ([2]; 25° C., 60% RH, Day 7): 99.297%
- Color and appearance ([2]; 25° C., 60% RH, Day 7): White solid
- Crystalline form ([2]; 25° C., 60% RH, Day 7): Not changed
- Main peak purity (%) ([2]; 25° C., 60% RH, Day 7): 97.689%
- Chiral purity (%) ([2]; 25° C., 60% RH, Day 14): 99.198%
- Color and appearance ([2]; 25° C., 60% RH, Day 14): White solid
- Crystalline form ([2]; 25° C., 60% RH, Day 14): Not changed
- Main peak purity (%) ([2]; 25° C., 60% RH, Day 14): 97.697%
- Bromide ion content (%) ([2]; 25° C., 60% RH, Month 1): 11.20%
- Chiral purity (%) ([2]; 25° C., 60% RH, Month 1): 99.255%
- Color and appearance ([2]; 25° C., 60% RH, Month 1): White solid
- Crystalline form ([2]; 25° C., 60% RH, Month 1): Not changed
- Main peak purity (%) ([2]; 25° C., 60% RH, Month 1): 97.649%
- Bromide ion content (%) ([2]; 25° C., 60% RH, Month 2): 11.05%
- Chiral purity (%) ([2]; 25° C., 60% RH, Month 2): 99.363%
- Color and appearance ([2]; 25° C., 60% RH, Month 2): White solid
- Crystalline form ([2]; 25° C., 60% RH, Month 2): Not changed
- Main peak purity (%) ([2]; 25° C., 60% RH, Month 2): 97.661%
- Chiral purity (%) ([2]; 25° C., 60% RH, Month 3): 99.283%
- Color and appearance ([2]; 25° C., 60% RH, Month 3): White solid
- Crystalline form ([2]; 25° C., 60% RH, Month 3): Not changed
- Main peak purity (%) ([2]; 25° C., 60% RH, Month 3): 97.552%
- Bromide ion content (%) ([2]; 25° C., 60% RH, Month 6): 11.82%
- Chiral purity (%) ([2]; 25° C., 60% RH, Month 6): 99.228%
- Color and appearance ([2]; 25° C., 60% RH, Month 6): White solid
- Crystalline form ([2]; 25° C., 60% RH, Month 6): Not changed
- Main peak purity (%) ([2]; 25° C., 60% RH, Month 6): 96.981%
- Chiral purity (%) ([2]; 40° C., 75% RH, Day 7): 99.295%
- Color and appearance ([2]; 40° C., 75% RH, Day 7): White solid
- Crystalline form ([2]; 40° C., 75% RH, Day 7): Not changed
- Main peak purity (%) ([2]; 40° C., 75% RH, Day 7): 97.661%
- Chiral purity (%) ([2]; 40° C., 75% RH, Day 14): 99.174%
- Color and appearance ([2]; 40° C., 75% RH, Day 14): White solid
- Crystalline form ([2]; 40° C., 75% RH, Day 14): Not changed
- Main peak purity (%) ([2]; 40° C., 75% RH, Day 14): 97.660%
- Bromide ion content (%) ([2]; 40° C., 75% RH, Month 1): 11.49%
- Chiral purity (%) ([2]; 40° C., 75% RH, Month 1): 99.262%
- Color and appearance ([2]; 40° C., 75% RH, Month 1): White solid
- Crystalline form ([2]; 40° C., 75% RH, Month 1): Not changed
- Main peak purity (%) ([2]; 40° C., 75% RH, Month 1): 97.558%
- Bromide ion content (%) ([2]; 40° C., 75% RH, Month 2): 10.93%
- Chiral purity (%) ([2]; 40° C., 75% RH, Month 2): 99.328%
- Color and appearance ([2]; 40° C., 75% RH, Month 2): White solid
- Crystalline form ([2]; 40° C., 75% RH, Month 2): Not changed
- Main peak purity (%) ([2]; 40° C., 75% RH, Month 2): 97.561%
- Chiral purity (%) ([2]; 40° C., 75% RH, Month 3): 99.275%
- Color and appearance ([2]; 40° C., 75% RH, Month 3): White solid
- Crystalline form ([2]; 40° C., 75% RH, Month 3): Not changed
- Main peak purity (%) ([2]; 40° C., 75% RH, Month 3): 97.259%
- Bromide ion content (%) ([2]; 40° C., 75% RH, Month 6): 11.91%
- Chiral purity (%) ([2]; 40° C., 75% RH, Month 6): 99.199%
- Color and appearance ([2]; 40° C., 75% RH, Month 6): White solid
- Crystalline form ([2]; 40° C., 75% RH, Month 6): Not changed
- Main peak purity (%) ([2]; 40° C., 75% RH, Month 6): 96.412%
- Bromide ion content (%) ([2]; Initial, 0): 11.75%
- Chiral purity (%) ([2]; Initial, 0): 99.298%
- Color and appearance ([2]; Initial, 0): White solid
- Crystalline form ([2]; Initial, 0): Crystalline
- Main peak purity (%) ([2]; Initial, 0): 97.689%
- Stability (conclusion of long-term/accelerated study) ([2]; long term and acceleration, 6 months): good physical and chemical stability
- Chiral purity (%) ([3]; 40° C., 7 days): 99.293%
- Color and appearance ([3]; 40° C., 7 days): White solid
- Crystalline form ([3]; 40° C., 7 days): Not changed
- Main peak purity (%) ([3]; 40° C., 7 days): 97.716%
- Chiral purity (%) ([3]; 40° C., 14 days): 99.165%
- Color and appearance ([3]; 40° C., 14 days): White solid
- Crystalline form ([3]; 40° C., 14 days): Not changed
- Main peak purity (%) ([3]; 40° C., 14 days): 97.727%
- Bromide ion content (%) ([3]; 40° C., 30 days): 11.73%
- Chiral purity (%) ([3]; 40° C., 30 days): 99.251%
- Color and appearance ([3]; 40° C., 30 days): White solid
- Crystalline form ([3]; 40° C., 30 days): Not changed
- Main peak purity (%) ([3]; 40° C., 30 days): 97.644%
- Chiral purity (%) ([3]; 60° C., 7 days): 99.299%
- Color and appearance ([3]; 60° C., 7 days): White solid
- Crystalline form ([3]; 60° C., 7 days): Not changed
- Main peak purity (%) ([3]; 60° C., 7 days): 97.645%
- Chiral purity (%) ([3]; 60° C., 14 days): 99.187%
- Color and appearance ([3]; 60° C., 14 days): White solid
- Crystalline form ([3]; 60° C., 14 days): Not changed
- Main peak purity (%) ([3]; 60° C., 14 days): 97.671%
- Bromide ion content (%) ([3]; 60° C., 30 days): 11.50%
- Chiral purity (%) ([3]; 60° C., 30 days): 99.263%
- Color and appearance ([3]; 60° C., 30 days): White solid
- Crystalline form ([3]; 60° C., 30 days): Not changed
- Main peak purity (%) ([3]; 60° C., 30 days): 97.630%
- Chiral purity (%) ([3]; 75% RH, 7 days): 99.293%
- Color and appearance ([3]; 75% RH, 7 days): White solid
- Crystalline form ([3]; 75% RH, 7 days): Not changed
- Main peak purity (%) ([3]; 75% RH, 7 days): 97.687%
- Chiral purity (%) ([3]; 75% RH, 14 days): 99.179%
- Color and appearance ([3]; 75% RH, 14 days): White solid
- Crystalline form ([3]; 75% RH, 14 days): Not changed
- Main peak purity (%) ([3]; 75% RH, 14 days): 97.705%
- Bromide ion content (%) ([3]; 75% RH, 30 days): 11.73%
- Chiral purity (%) ([3]; 75% RH, 30 days): 99.274%
- Color and appearance ([3]; 75% RH, 30 days): White solid
- Crystalline form ([3]; 75% RH, 30 days): Not changed
- Main peak purity (%) ([3]; 75% RH, 30 days): 97.676%
- Chiral purity (%) ([3]; 92.5% RH, 7 days): 99.294%
- Color and appearance ([3]; 92.5% RH, 7 days): White solid
- Crystalline form ([3]; 92.5% RH, 7 days): Not changed
- Main peak purity (%) ([3]; 92.5% RH, 7 days): 97.706%
- Chiral purity (%) ([3]; 92.5% RH, 14 days): 99.175%
- Color and appearance ([3]; 92.5% RH, 14 days): White solid
- Crystalline form ([3]; 92.5% RH, 14 days): Not changed
- Main peak purity (%) ([3]; 92.5% RH, 14 days): 97.701%
- Bromide ion content (%) ([3]; 92.5% RH, 30 days): 11.55%
- Chiral purity (%) ([3]; 92.5% RH, 30 days): 99.268%
- Color and appearance ([3]; 92.5% RH, 30 days): White solid
- Crystalline form ([3]; 92.5% RH, 30 days): Not changed
- Main peak purity (%) ([3]; 92.5% RH, 30 days): 97.653%
- Chiral purity (%) ([3]; 4500 Lux, 7 days): 99.297%
- Color and appearance ([3]; 4500 Lux, 7 days): White solid
- Crystalline form ([3]; 4500 Lux, 7 days): Not changed
- Main peak purity (%) ([3]; 4500 Lux, 7 days): 97.683%
- Chiral purity (%) ([3]; 4500 Lux, 14 days): 99.152%
- Color and appearance ([3]; 4500 Lux, 14 days): White solid
- Crystalline form ([3]; 4500 Lux, 14 days): Not changed
- Main peak purity (%) ([3]; 4500 Lux, 14 days): 97.660%
- Bromide ion content (%) ([3]; 4500 Lux, 30 days): 11.18%
- Chiral purity (%) ([3]; 4500 Lux, 30 days): 99.243%
- Color and appearance ([3]; 4500 Lux, 30 days): White solid
- Crystalline form ([3]; 4500 Lux, 30 days): Not changed
- Main peak purity (%) ([3]; 4500 Lux, 30 days): 97.626%
- Bromide ion content (%) ([3]; Initial, 0 days): 11.75%
- Chiral purity (%) ([3]; Initial, 0 days): 99.298%
- Color and appearance ([3]; Initial, 0 days): White solid
- Crystalline form ([3]; Initial, 0 days): Crystalline
- Main peak purity (%) ([3]; Initial, 0 days): 97.689%
- Stability (conclusion of influencing factor study) ([3]; illumination, 40° C. and 60° C., high humidities of 75% and 92.5%): good physical and chemical stabilities
